The results in this text go back to US8765786B2, “1-substituted indazole derivative” (Dainippon Sumitomo Pharma Co., Ltd., priority 2012, dated 2014).

This experiment concerns the target T1, human α7 nAChR (Homo sapiens, UniProt P36544).
T1 construct: expressed in transfected cells; host or cells: GH4C1 cells derived from rat pituitary (ATCC CCL-82.2)
In words: Evaluation of PAM activity with human α7 nACh receptor stably expressing cells (aequorin luminescence, FDSS7000). It is filed as cell-based. A digest of the protocol: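 PAM activity defined as RLU (Max-Min) of compound wells over control wells, from 465 nm aequorin luminescence tracked 138 s after ACh challenge. Host: GH4C1 (rat pituitary) stably co-expressing human α7 nAChR and aequorin, pre-loaded 4 h with 4 μmol/L luminescent substrate.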

The mark [1] stands for this setting: test compound 10 μmol/L, ACh added at EC20, ratio of RLU (Max-Min) of test wells to control wells.

Each structure is given as a SMILES string.

T1 sequence (P36544 23-502): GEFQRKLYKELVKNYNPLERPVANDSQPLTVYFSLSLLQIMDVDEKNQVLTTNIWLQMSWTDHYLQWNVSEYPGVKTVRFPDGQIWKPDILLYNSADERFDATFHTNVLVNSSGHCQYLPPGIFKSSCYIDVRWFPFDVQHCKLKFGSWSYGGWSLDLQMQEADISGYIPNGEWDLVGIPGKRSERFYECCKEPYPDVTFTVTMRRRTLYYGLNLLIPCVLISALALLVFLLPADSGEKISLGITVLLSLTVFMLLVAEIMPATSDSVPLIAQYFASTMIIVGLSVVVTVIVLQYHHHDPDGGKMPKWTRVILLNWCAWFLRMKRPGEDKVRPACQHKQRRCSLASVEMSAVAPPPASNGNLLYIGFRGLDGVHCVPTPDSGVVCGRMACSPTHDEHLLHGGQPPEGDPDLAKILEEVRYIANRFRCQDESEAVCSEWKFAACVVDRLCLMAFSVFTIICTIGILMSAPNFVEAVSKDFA

Consider `COc1nn(C2CCN(C(=O)NC3CCOCC3)CC2)c2ccc(C(F)(F)F)cc12` [Example 266], for which the “α7PAM (%) @ 10 μmol/L” value under setting [1] is on record as 448%.
The same measure, in the same setting: to `CCOC1CCC(NC(=O)N2CCC(n3ncc4c(C)cccc43)CC2)CC1` (centres unmarked) [Example 96] belongs 143%; to `COCC1CCC(NC(=O)N2CCC(n3ncc4cc(OC(F)(F)F)ccc43)CC2)CC1` (centres unmarked) [Example 228], 276%.
Same read-out and setting: the value for `CCc1ccc2c(cnn2[C@H]2CC[C@@H](NC(=O)C3CCOCC3)CC2)c1` [Example 120] was 654%.
Take `CCOc1ccc2c(cnn2C2CCN(C(=O)NC3CCOCC3)CC2)c1` [Example 19]: the “α7PAM (%) @ 10 μmol/L” value under setting [1] stood at 306%.
On the same count and under the same terms, to `COCCCc1ccc2c(cnn2C2CCN(C(=O)N[C@H]3CC[C@H](OC)CC3)CC2)c1` [Example 32] belongs 430%.
For `Cc1ccc2c(cnn2C2CCN(C(=O)NC3CCCCC3)CC2)c1` [Example 8, N-cyclohexyl-4-(5-methyl-1H-indazol-1-yl)piperidine-1-carboxamide], the “PAM activity for α7 nAChR” value (result in words, ratio of RLU (Max-Min) to control wells, ACh EC20) was “stronger PAM activity than others”.
In the case of `Cc1c(Br)ccc2c1cnn2C1CCN(C(=O)NC2CCC(F)(F)CC2)CC1` [Example 286], the “α7PAM (%) @ 10 μmol/L” value under setting [1] came out at 825%.
On the same count and under the same terms, the value for `COc1ccc(CNC(=O)N2CCC(n3ncc4cc(C5CC5)ccc43)CC2)cc1` [Example 193] was 889%; that for `[2H]C([2H])([2H])O[C@H]1CC[C@H](NC(=O)N2CCC(n3ncc4cc(C5CC5)ccc43)CC2)CC1` [Example 296, 4-(5-cyclopropyl-1H-indazol-1-yl)-N-{trans-4-[(^2H3)methoxy]cyclohexyl}piperidine-1-carboxamide] was 1268%.
On the same count and under the same terms, the value for `COC1CCC(NC(=O)N2CCC(n3nc(C)c4cc(C)ccc43)CC2)CC1` (centres unmarked) [Example 89] was 1506%; that for `O=C(NC1CC1)N1CCC(n2ncc3cc(C4CC4)ccc32)CC1` [Example 176] was 187%; that for `CCc1ccc2c(cnn2C2CCCN(C(=O)NC3CCC(F)(F)CC3)CC2)c1` (centres unmarked) [Example 73] was 453%.
The same measure, in the same setting: to `COc1ccc2c(c1)c(C1CCOCC1)nn2C1CCN(C(=O)NC2CCC(F)(F)CC2)CC1` [Example 261] belongs 924%.
On to `CCOc1c(CC)ccc2c1cnn2C1CCN(C(=O)NC2CCC(F)(F)CC2)CC1` [Example 271], for which the “α7PAM (%) @ 10 μmol/L” value under setting [1] worked out at 931%.
Turning to `Cc1ccc2c(cnn2C2CCN(C(=O)C3CCCCC3)CC2)c1` [Example 105], the “α7PAM (%) @ 10 μmol/L” value under setting [1] was 338%.
The same measure, in the same setting: the value for `COC(C)c1c(C)ccc2c1cnn2C1CCN(C(=O)NC2CCC(F)(F)CC2)CC1` (centres unmarked) [Example 232] was 860%.
Turning to `CC(C)Oc1ccc2c(cnn2C2CCN(C(=O)NC3CCC(F)(F)CC3)CC2)c1` [Example 46, N-(4,4-difluorocyclohexyl)-4-(5-isopropoxy-1H-indazol-1-yl)piperidine-1-carboxamide], the activity at 10 µM (test compound 10 μmol/L, ACh added at EC20, ratio of RLU (Max-Min) of test wells to control wells, read-out: α7PAM (%) @ 10 μmol/L) stood at 544%.
Turning to `O=C(NC1CCCCC1)N1CCC(n2ncc3ccccc32)CC1` [Example 39], the “α7PAM (%) @ 10 μmol/L” value under setting [1] is 1892%.
For `CCc1ccc2c(c1)c(OC)nn2C1CCN(C(=O)NC2CCCCC2)CC1` [Example 151], the “α7PAM (%) @ 10 μmol/L” value under setting [1] was determined as 746%.
The same measure, in the same setting: to `CCc1ccc2c(cnn2C2CCCN(C(=O)NC3CCC(OC)CC3)CC2)c1` (centres unmarked) [Example 84] belongs 179%.
As for `COC1CCC(NC(=O)N2CCC(n3ncc4c(Br)cccc43)CC2)CC1` (centres unmarked) [Example 98], under setting [1], the “α7PAM (%) @ 10 μmol/L” value amounted to 89%.
Still for that read-out and setting: the value for `COc1ccc2c(cnn2C2CCN(C(=O)NC3CCC(F)(F)CC3)CC2)c1OC` [Example 305] was 729%; that for `[2H]C([2H])([2H])c1ccc2c(cnn2C2CCN(C(=O)NC3CCCC3)CC2)c1` [Example 315] was 825%; that for `COc1ccc2c(c1)c(C1=CCOCC1)nn2C1CCN(C(=O)NC2CCC(F)(F)CC2)CC1` [Example 259] was 309%.
Still for that read-out and setting: to `COc1c(Br)ccc2c1cnn2C1CCN(C(=O)N[C@H]2CC[C@H](OC)CC2)CC1` [Example 285] belongs 293%.
